Consider two compounds from PMC11986975, “A Cdk5 inhibitor restores cognitive function and alleviates type 2 diabetes in mice” (iScience, 2025).

A value given as a limit tells only on which side of the number the result lay.

The test system of data set [1] is HFD-fed mice. The data set is described as follows: Y-maze test in HFD mice. The format is in vivo. The note with it: i.p., 20 days. Here is the method: As previously mentioned, the Y-maze test was utilized to evaluate the mouse groups' short-term spatial memory The Y-maze test was used to assess short-term spatial memory in the mouse groups. The apparatus consists of three arms arranged in a Y-shape, typically labeled A, B, and C, with each arm having the same length and width. Mice were initially placed in one arm (usually arm A) and allowed to explore freely for 5 min, with one of the other arms blocked off, restricting exploration to the starting arm and the remaining open arm. After a 5-min delay, the mouse was reintroduced to the maze with all arms accessible. The time spent in each arm and the number of entries into each arm were recorded over a 5-min period. […] We also evaluated the mice’s spontaneous alternation rate during the Y-maze test. Spontaneous alternation reflects working memory, as it refers to the mouse’s tendency to enter a less recently visited arm. The sequence and number of arm entries were tracked, with an alternation defined as consecutive entries into all three arms without repetition (e.g., A-B-C, B-C-A).[59]^,[60]^,[61] […] As a result, we evaluated the novel arm’s exploration according to many criteria.Spontaneous Alternation (%) = {(Number of alternations)/ (Total arm entries−2)} ×100

Data set [2] can be described thus: MTT cell toxicity assay in HEK293T cells. Conditions: human, all doses (25 to 100 μM). The format is cell-based. Here is the method:
HEK293T, HepG2, and N2A cells were used in the study representing kidney, liver and neuronal cell lines respectively. The cells were cultured in DMEM supplemented with 10% fetal bovine serum and antibiotics at 37°C under 5% CO2. The cells were tested negative for mycoplasma.
To evaluate the compound toxicity for the Cdk5 inhibitors, an MTT assay was performed in HEK293T, HepG2, and N2A cells at varying concentrations. Six hours after cell seeding, the compounds were added in different amounts, and the cells were harvested after 24 h for further analysis. N2A cells were transfected using Lipofectamine-3000 reagent, co-transfecting with plasmids encoding Cdk5/p35 and Cdk5/p25 for 12 h, followed by inhibitor treatment to assess their effects in the cell culture system. The concentrations of each plasmids used was 1 μg, total of 3 μg per well for 6 well plates.

Data set [3] concerns HFD-fed mice. The data set is described as follows: Grip strength test in HFD mice. The data set is classed as in vivo. The note with it: i.p., 40 mg/kg/day, 20 days. As to the method: A grip strength meter was used to measure the forelimb grip strength in mice.[54] The mouse was given a chance to grab the gauge with its forelimbs before having its tail gently pulled back. Digital transducers were used to record the muscular force. Five trials were conducted on each mouse.[23]

The next data set has as its target Cdk5/p35 (Homo sapiens, UniProt Q00535). The data set is described as follows: Cdk5 kinase assay (ADP-Glo) with Cdk5/p35 complex. The data set is classed as biochemical. The note with it: 10 μM ATP, histone substrate, inhibitor 0-100 nM. Here is the method:
The test tube Cdk5 Kinase assay was performed utilizing Cdk5/p35 and Cdk5/p25 complexes as kinases, following the modified procedure outlined in a previous study,[52] using a Promega ADP-GloTM Kinase Assay kit. The reaction was carried out with 10 μM ATP and 2 μg of histone as the substrate for Cdk5 complexes. To study the inhibition patterns, 19 Cdk5 inhibitors (BLINK1-19) identified through molecular docking were added to the Cdk5 kinase reaction in increasing concentrations ranging from 0 to 100 nM. The IC50 (half-maximal inhibitory concentration) values of all the inhibitors were calculated based on Log(inhibitor) vs. normalized response using GraphPad software.
(In ADP-Glo the light output rises with the ADP produced.)

Data set [4] relates to HFD-fed mice. The data set is described as follows: Body weight in HFD-fed T2D mice. The format is in vivo. Conditions: i.p. Here is the method:
The HFD-fed mice model received intraperitoneal injections of the compounds BLINK11 and BLINK15 at doses of 20 mg/kg/day and 40 mg/kg/day for a total of 20 days in the third month of HFD feeding. The body weight was measured at the beginning of the drug therapy, on day 0, and then again on days 10 and 20, as indicated in Figure 4A.
Two groups of four-week-old male C57BL/6J mice were established. One group (n = 8) was fed a standard laboratory mouse chow diet (Protein: 20% kcal, Carbohydrate: 70% kcal, Fat: 10% kcal), while the other group (n = 40) was placed on a HFD (Protein: 20% kcal, Carbohydrate: 20% kcal, Fat: 60% kcal).[23] Body weight, ITT, and GTT were assessed. Mice were treated with BLINK11 and BLINK15 inhibitors at 20 mg/kg and 40 mg/kg doses for 20 days. The study included six groups: Control, HFD, HFD_BLINK11_20, HFD_BLINK11_40, HFD_BLINK15_20, and HFD_BLINK15_40. […] The control used in the study are vehicle treated-control group (5% DMSO, 0.1% tween 20 and 1X PBS). The doses of 20 mg/kg and 40 mg/kg body weight were selected based on evidence from previous studies evaluating the efficacy and safety of similar kinase inhibitors.[45]^,[46]^,[47] […] The 40 mg/kg dose was selected to assess dose-dependent efficacy and represents the upper limit of tolerability based on pharmacokinetic and toxicity data.

Data set [5] relates to HFD-fed mice. The data set is described as follows: Rotarod test in HFD mice. The format is in vivo. The note with it: i.p., 20 days. Here is the method:
Rats and mice have been tested for motor coordination using the rotarod test. The animals were placed on a horizontal rod that rotates around its long axis for this test; in order to remain upright and prevent sliding off, the animal must move ahead. Every 5 min, the rod’s speed was raised, and the number of falls were counted to assess the motor coordination.[23]^,[55]
For orientation: In the rotarod test animals must keep their balance on a rotating rod.

For another data set, the target named is Cdk1/CylY. The data set is described as follows: Specificity kinase assay, Cdk1 with cyclin Y. The format is biochemical. The note with it: inhibitor 0-100 nM; read-out: IC50, Cdk1 with activator cyclin Y. An excerpt:
To assess the specificity of inhibitors BLINK11 and BLINK15 against CDK5, we investigated their effects on different Cdks, i.e., Cdk1, Cdk2, and Cdk9 that share structural homology with CDK5. […] However, these IC50 values were higher than those observed for CDK5/p35 and CDK5/p25. […] Overall, BLINK11 and BLINK15 can selectively target CDK5 at lower concentrations. […]
IC50 of all the kinases for both BLINK11 and BLINK15 inhibitors.

Another data set concerns amyloid beta (Aβ) 1–42. The data set is described as follows: Amyloid beta 1-42 in hippocampus of treated HFD mice (ELISA and immunohistochemistry). The data set is classed as in vivo. The note with it: i.p., 40 mg/kg. In general terms: ELISA stands for enzyme-linked immunosorbent assay.

Chain of Cdk5/p35 (Q00535 whole entry, species assumed): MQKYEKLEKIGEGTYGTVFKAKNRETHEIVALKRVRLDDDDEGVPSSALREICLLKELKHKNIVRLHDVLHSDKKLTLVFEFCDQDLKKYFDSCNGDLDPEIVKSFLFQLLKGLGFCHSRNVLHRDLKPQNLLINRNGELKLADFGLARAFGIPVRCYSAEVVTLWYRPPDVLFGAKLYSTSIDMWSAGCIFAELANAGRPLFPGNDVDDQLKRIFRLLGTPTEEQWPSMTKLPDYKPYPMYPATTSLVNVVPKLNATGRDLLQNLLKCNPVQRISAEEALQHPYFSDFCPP
Chain of Cdk5/p35 (Q15078 whole entry partner, species assumed): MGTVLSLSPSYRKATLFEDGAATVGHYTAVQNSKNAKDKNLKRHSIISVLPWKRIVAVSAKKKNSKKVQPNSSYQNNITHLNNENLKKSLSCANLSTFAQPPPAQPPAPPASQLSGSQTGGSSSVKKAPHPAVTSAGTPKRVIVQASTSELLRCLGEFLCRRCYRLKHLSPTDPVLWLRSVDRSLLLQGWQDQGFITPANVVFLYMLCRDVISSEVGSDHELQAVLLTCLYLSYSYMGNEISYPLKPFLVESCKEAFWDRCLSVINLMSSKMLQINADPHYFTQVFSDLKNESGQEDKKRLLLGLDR
Chain of Cdk1/CylY (P06493 whole entry): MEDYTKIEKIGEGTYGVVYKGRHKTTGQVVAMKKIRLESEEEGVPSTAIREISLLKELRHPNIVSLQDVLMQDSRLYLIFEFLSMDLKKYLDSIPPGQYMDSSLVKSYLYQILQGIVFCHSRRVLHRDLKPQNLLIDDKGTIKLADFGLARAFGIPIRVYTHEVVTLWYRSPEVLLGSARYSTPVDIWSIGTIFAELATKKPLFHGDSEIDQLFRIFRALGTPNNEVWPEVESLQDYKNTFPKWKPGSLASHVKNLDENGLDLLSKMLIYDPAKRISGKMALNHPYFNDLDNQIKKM
Chain of Cdk1/CylY (Q8ND76 2-341 partner): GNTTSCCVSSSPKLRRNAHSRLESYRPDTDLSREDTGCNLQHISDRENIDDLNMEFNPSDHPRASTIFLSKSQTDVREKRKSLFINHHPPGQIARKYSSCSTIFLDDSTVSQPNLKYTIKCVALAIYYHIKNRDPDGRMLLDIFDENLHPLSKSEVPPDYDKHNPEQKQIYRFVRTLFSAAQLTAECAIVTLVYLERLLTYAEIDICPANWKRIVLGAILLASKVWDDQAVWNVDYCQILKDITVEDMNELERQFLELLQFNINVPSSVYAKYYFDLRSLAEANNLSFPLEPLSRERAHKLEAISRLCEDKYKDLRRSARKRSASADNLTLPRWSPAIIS

A word on the viability: it is a read-out of living cells in per cent, often relative to untreated cells. The IC50 is the concentration needed to halve the response being measured. Turning to `O=C(COc1ccccc1C(=O)Nc1cccc(Cl)c1Cl)Nc1ccc(N2CCOCC2)c(Cl)c1` [BLINK11, 2-(2-((3-chloro-4-morpholinophenyl)amino)-2-oxoethoxy)-N-(2,3-dichlorophenyl)benzamide], the Y-maze alteration percentage entry in the data set with HFD-fed mice [1] (20 mg/kg/day) is “did not exhibit any rescue effect”; in the data set with HFD-fed mice [1] (40 mg/kg/day), “the decrease in alteration percentage was recovered”. For the same compound, the viability at 24 h in data set [2] was more than 50%. In the data set on HFD-fed mice [3], the Grip strength result is on record as “rescue behavior”. Besides, the IC50 was 17.1 nM against Cdk5/p35 and 39.3 nM at Cdk1/CylY. The “Body weight gain caused by HFD” value in the data set with HFD-fed mice [4] (both dosages 20 and 40 mg/kg/day, 20 days) was “rescued from the gain in body weight”. Moreover, in the data set with HFD-fed mice [5], the “Muscle strength and motor coordination on the rotarod” value was “rescue effect”. The “Aβ 1–42 accumulation in the hippocampus” value with amyloid beta (Aβ) 1–42 is recorded as “significantly reduced”.

With `COc1ccc(C(=O)C[C@@]2(O)C(=O)N(Cc3ccccc3)c3ccc(Br)cc32)cc1[N+](=O)[O-]` [BLINK15], the viability at 24 h in data set [2] is more than 50%. Also, the Grip strength result with HFD-fed mice [3] is on record as “rescue behavior”. Further, the IC50 on Cdk5/p35 stood at 29.3 nM; on Cdk1/CylY, 35.8 nM. Moreover, the “Body weight gain caused by HFD” value with HFD-fed mice [4] (40 mg/kg/day, 20 days (only the higher dose)) is recorded as “significant recovery”.
